# Laboratory results published in patent publication US9518085B2, “Compounds and pharmaceutical combinations for the treatment of neurodegenerative and ischemic brain diseases” (CENTRO DE INGENIERÍA GENÉTICA Y BIOTECHNOLOGÍA, priority 2011, dated 2016).
# No end group written: not given here.
# Experiments:
# [1] = tested on: model of brain damage in rats induced by kainic acid; settings: one 100 mg/kg dose; cited from earlier work
# [2] = tested on: culture of brain granulous cells; settings: 1-3 mg/mL, absence of potassium and serum for 24 h; cited from earlier work
# [3] = tested on: swollen paw models in mice and rats; settings: oral route, 100-200 mg/kg; cited from earlier work
# PC12 cell line = assay: Neuroprotector effect against Sodium glutamate induced damage in PC12 cells (MTT cell viability); type: cell-based; settings: for cells protected from the damage: Sodium glutamate damage, PC12; for concentration needed to attain cell viability similar to C-Phyco: PC12, 24 h pretreatment, 4 h co-incubation with Sodium glutamate, MTT
# Method: FIG. 2. In vitro study of the neuroprotector effect of C-Phycocyanin (C-Phyco) (A) and of PCB and PCB-aa (B) against the Sodium glutamate (50 mM) induced damage in the neuronal line PC12. The symbols indicate the presence (+), absence (−) or concentrations of the respective compounds in the culture medium. Different letters indicate statistically significant difference, according to ANOVA followed by the Newman-Keuls multiple comparison test, p<0.05. The values presented in the graphs are the means±standard error of the mean (MSE).
# PC12 cells (1.5×10^4 cells/well) were pretreated with C-Phyco (25, 50 μM) or PCB (0.5; 1; 5 μM) or PCB-aa (0.25; 1; 2 μM), during 24 h, and then submitted to co-incubation with […] Sodium glutamate together with the corresponding product (different doses) for 4 h.
# COX-2 = target: T1, COX-2 (Homo sapiens, UniProt P35354); settings: isolated enzyme; complete blood assay; cited from earlier work
# T1 sequence (P35354 18-604): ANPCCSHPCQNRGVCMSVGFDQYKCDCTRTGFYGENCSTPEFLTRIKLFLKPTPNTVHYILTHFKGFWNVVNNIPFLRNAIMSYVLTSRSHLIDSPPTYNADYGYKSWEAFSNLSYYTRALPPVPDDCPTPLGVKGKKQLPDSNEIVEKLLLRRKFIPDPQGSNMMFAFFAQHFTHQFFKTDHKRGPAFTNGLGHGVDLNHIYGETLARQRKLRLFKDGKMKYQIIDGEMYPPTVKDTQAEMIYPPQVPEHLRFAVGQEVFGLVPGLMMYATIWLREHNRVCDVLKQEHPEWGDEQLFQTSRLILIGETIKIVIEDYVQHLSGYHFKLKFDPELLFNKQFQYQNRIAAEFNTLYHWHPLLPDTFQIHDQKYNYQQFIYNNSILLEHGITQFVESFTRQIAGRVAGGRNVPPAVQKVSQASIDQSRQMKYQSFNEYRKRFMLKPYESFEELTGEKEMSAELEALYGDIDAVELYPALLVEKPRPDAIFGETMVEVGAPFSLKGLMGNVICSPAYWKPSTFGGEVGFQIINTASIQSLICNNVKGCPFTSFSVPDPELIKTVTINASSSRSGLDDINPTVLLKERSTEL
# [4] = tested on: hippocampus (C2, CA3, CA4 regions) of Mongolian gerbils, I/R model; assay: Morphometric evaluation, bilateral hippocampal cell count after transient CCA occlusion; type: in vivo; settings: 750 μg/Kg ip, GHRP-6 6.25 μg/kg ip, alone or combined; 30 min, 3, 6, 12 h after ischemic event
# Method: FIG. 8. Morphometric evaluation of the therapeutic effect with PCB-aa (peptide 3), the GHRP-6 peptide, or its combination in Mongolian gerbils submitted to transient (10 min) occlusion of CCA. A: representative images (4× magnification) of the left hippocampus of animals that underwent fake surgery (sham), or treated with saline solution, or with PCB-aa (peptide 3) and GHRP-6 (6.25 μg/kg, intraperitoneal route), or with PCB-aa (peptide 3)/GHRP-6 (maintaining the corresponding doses and administration routes) for 30 min, 3, 6 and 12 h after the ischemic event. B: bilateral cell count performed in the C2, CA3 and CA4 regions of both hippocampi for each experimental group. Different letters indicate significant differences with respect to the I/R+saline group, *p<0.05. The values presented in the graphs are means±MSE
# The morphometric evaluations of the therapeutic treatment with PCB-aa (peptide 3), the GHRP-6 peptide or its combinations were tested in Mongolian gerbils submitted to transient (10 min) CCAs occlusion. Accumulative doses of PCB-aa (peptide 3) (750 μg/Kg, by intraperitoneal route), GHRP-6 (6.25 μg/kg, intraperitoneal route), or with PCB-aa (peptide 3)/GHRP-6 (maintaining the corresponding dose and administration route) for 30 min, 3, 6 and 12 h after the ischemic event were evaluated. The bilateral cell count was performed in the C2, CA3 and CA4 regions for each experimental group and it was expressed in percentage with respect to the sham (negative or fake surgery) group.
# [5] = tested on: brain I/R model in Mongolian gerbils; assay: Brain infarct volume in the bilateral ischemia-reperfusion (I/R) model, transient CCA occlusion; type: in vivo; settings: 24 h after 10 min CCA occlusion, PCB 750 μg/Kg ip, PCB-aa 3.375 mg/kg, alone or combined
# Method: The animals were treated with saline solution or with an accumulative dose of the PCB-aa peptides (3.375 mg/kg of each one), by intraperitoneal route for 30 min, 3, 6 and 12 h after the ischemic event.
# The effectiveness percentage of each treatment was calculated according to the following formula: effectiveness %=(1−Vi/VI/R)×100. Vi: infarct volume of the ischemic group treated with the corresponding product; VI/R: volume of the infarct of the ischemic group treated with saline solution.
# The percentage of effectiveness was calculated as described in Example 3.
# The animals were treated with a saline solution (through the intraperitoneal route) or with an accumulative dose of PCB (750 μg/Kg, by the intraperitoneal route), PCB-aa (peptide 4) 3.375 mg/kg, EPO (500 U/Kg, through the intraperitoneal route), asyaloEPO (200 U/Kg, through the nasal route) or with PCB/EPO or PCB-aa (peptide 4)/EPO, PCB/asyaloEPO and PCB-aa ([…])/asyaloEPO (maintaining the dose and the corresponding administration route) for 30 min, 3, 6 and 12 h after the ischemic event.
# The evaluation of the therapeutic effect of the combinations and their independent components was carried out. The percentage of effectiveness of each treatment was calculated as described in Example 3.
# EAE model = assay: EAE model, therapeutic schedule, clinical course (area under the curve); type: in vivo, C57BL6 mice; settings: PCB 750 μg/kg ip, PCB-aa 3.375 mg/kg ip daily 15 days, IFN-b 500 ng/Kg sc 6 doses, alone or combined
# Method: The percentage of effectiveness of each treatment was calculated according to the following formula: % of effectiveness=(1−ACi/ACEAE)×100. ACi: area under the curve of the group treated with the corresponding product; ACEAE: area under the curve of the EAE group.
# (§1) In the prophylactic schedule the treatment was performed 15 days before EAE induction and in the therapeutic schedule starting from the beginning of the clinical signs.
# [6] = tested on: experimental autoinmune encephalomyelitis (EAE) model; assay: EAE model, prophylactic schedule, clinical index; type: in vivo, C57BL6 mice; settings: PCB-aa 3.375 mg/Kg, PCB 750 μg/Kg, alone or combined
# Method: as §1
# [7] = EPO 500 U/Kg ip, asyaloEPO 200 U/Kg nasal
# [8] = IFN-a/IFN-b 500 ng/Kg sc, 30 min, 3, 6, 12 h after ischemic event
substance,measurement,setting,value
C-Phycocyanin,signs and alterations versus untreated control group,[1],reduced the signs
same,neuron death,[2],prevents neuron death
same,edema,[3],able to reduce edemas
same,cells protected from the damage,PC12 cell line; 50 μM C-Phyco,around 75%
same,COX-2 inhibition,COX-2,inhibits COX-2
GHRP-6 [reference compound],"effectiveness, bilateral hippocampal cell count",[4],36.1%
Phycocyanobilin [PCB],"effectiveness, reduction of brain infarct volume",[5]; [7],43.1%
same,"effectiveness, reduction of brain infarct volume",[5]; [8],43.1%
same,"effectiveness, reduction of brain infarct volume",[5]; IL-2 100 ng/Kg sc,43.1%
same,% of effectiveness (area under the curve of clinical index),EAE model,46.1%
same,"effectiveness, bilateral hippocampal cell count",[4],35.8%
same,cells protected from the damage,PC12 cell line; 5 μM PCB,100%
same,concentration needed to attain cell viability similar to C-Phyco,PC12 cell line,lower concentrations
same,"protective molar concentration, times lower than C-Phyco","PC12 cell line; PC12, Sodium glutamate damage",10 times
same,Clinical score (Mean ± SD),"[6]; Table 1, IFN-a 500 ng/Kg",1.37 ± 1.7
same,Days of the disease,"[6]; Table 1, IFN-a 500 ng/Kg",8.5 ± 0.1 days
same,Incidence (%),"[6]; Table 1, IFN-a 500 ng/Kg",70%
same,Starting Day (Mean ± SD),"[6]; Table 1, IFN-a 500 ng/Kg",10.5 ± 0.5
same,Clinical score (Mean ± SD),"[6]; Table 2, IFN-b 500 ng/Kg",1.55 ± 0.3
same,Days of the disease,"[6]; Table 2, IFN-b 500 ng/Kg",7.3 ± 0.4 days
same,Incidence (%),"[6]; Table 2, IFN-b 500 ng/Kg",60%
same,Starting day (Mean ± DS),"[6]; Table 2, IFN-b 500 ng/Kg",12.3 ± 0.1
"^79MAABLR^84 (MAAC(phycocyanobilin)LR; listed as Spirulina platensis) [PCB-aa (peptide 1), chromogenic peptide of β-C-Phyco]","effectiveness, reduction of brain infarct volume",[5]; [8],49.2%
same,concentration needed to attain cell viability similar to C-Phyco,PC12 cell line,even lower
same,Clinical score (Mean ± SD),"[6]; Table 1, IFN-a 500 ng/Kg",1.23 ± 1.1
same,Days of the disease,"[6]; Table 1, IFN-a 500 ng/Kg",7.2 ± 0.3 days
same,Incidence (%),"[6]; Table 1, IFN-a 500 ng/Kg",75%
same,Starting Day (Mean ± SD),"[6]; Table 1, IFN-a 500 ng/Kg",9.5 ± 0.2
same,Clinical score (Mean ± SD),"[6]; Table 2, IFN-b 500 ng/Kg",1.23 ± 1.1
same,Days of the disease,"[6]; Table 2, IFN-b 500 ng/Kg",7.2 ± 0.3 days
same,Incidence (%),"[6]; Table 2, IFN-b 500 ng/Kg",70%
same,Starting day (Mean ± DS),"[6]; Table 2, IFN-b 500 ng/Kg",9.5 ± 0.2
"^80AABLR^84 (AAC(phycocyanobilin)LR; listed as Spirulina platensis) [PCB-aa (peptide 3), chromogenic peptide of β-C-Phyco]","effectiveness, bilateral hippocampal cell count",[4],35.8%
"^82BLR^84 (Cys(phycocyanobilin)-Leu-Arg; listed as Spirulina platensis) [PCB-aa (peptide 4), chromogenic peptide of β-C-Phyco]","effectiveness, reduction of brain infarct volume",[5]; [7],49.2%
"^84BAR^86 (Cys(phycocyanobilin)-Ala-Arg; listed as Spirulina platensis) [PCB-aa (peptide 2), chromogenic peptide of α-C-Phyco]","effectiveness, reduction of brain infarct volume",[5]; IL-2 100 ng/Kg sc,49.2%
